Measurements taken from ChEMBL document CHEMBL1201862, “PubChem BioAssay data set” (2004).
Active and inactive are the calls of the source.

Tests used:
cells [1] = assay type: functional, cell-based
[2] = target: T1, Beta-2 adrenergic receptor (Homo sapiens, UniProt P07550); experiment: ADRB2 activation measured by internalization – cell-based, FAP fluorogen, flow cytometry, cherry pick 1, dose response (AID 588763); assay type: functional
[3] = target: T1, Beta-2 adrenergic receptor; experiment: Dose response for HTS for Beta-2AR agonists via FAP method from Powderset1.; assay type: functional
cells [4] = assay type: functional, cell-based; remark: listed apart in the source
Beta-lactamase [5] = target: Beta-lactamase (Salmonella choleraesuis (strain SC-B67), UniProt Q5J463); experiment: Epi-absorbance-based counterscreen for selective VIM-2 inhibitors: dose response biochemical high throughput screening assay to identify inhibitors of TEM-1 serine-beta-lactamase.
Beta-lactamase [6] = target: T2, Beta-lactamase (Pseudomonas aeruginosa, UniProt Q79MP6); experiment: inhibition of IMP-1 beta-lactamase activity – biochemical, epi-absorbance, selectivity assay for VIM-2 inhibitor project, dose response (AID 1920)
Beta-lactamase [7] = target: T2, Beta-lactamase; experiment: […] counterscreen for selective VIM-2 inhibitors: dose response biochemical high throughput screening assay to identify inhibitors of IMP-1 metallo-beta-lactamase.
Jurkat = experiment: SAR Analysis of small molecule inhibitors of T-cell specific antigen receptor-induced NF-kB activation in a Jurkat cell line using a luminescence assay - Set 2. [Related pubchem assays (depositor defined):AID435003, AID435012, AID465]; assay type: functional, cell-based; settings: Homo sapiens
HEK293 [8] = experiment: HEK293T cell viability loss, resazurin readout – resazurin fluorescence, cytotoxicity control for NF-kB activator project, SAR follow-up (AID 493251); assay type: functional, cell-based; settings: Homo sapiens
H4 = experiment: Luminescence Cell-Based Dose Response HTS to Identify Activators of 5'UTR Stem-Loop Driven Prion Protein mRNA Translation in H4 Neuroglioblastoma Cells. [Related pubchem assays: 1829 (Project Summary), 1814 (Primary HTS)]; assay type: functional; settings: Homo sapiens
HEK293 [9] = experiment: SAR Analysis of small molecule inhibitors of T-cell specific antigen receptor-induced NF-kB activation in a HEK-293T cell line using a luminescence assay - Set 2. [Related pubchem assays (depositor defined):AID435003, AID435012, AID489026]; assay type: functional, cell-based; settings: Homo sapiens
[10] = target: SWI/SNF-related matrix-associated actin-dependent regulator of chromatin subfamily A member 2 (Homo sapiens, UniProt P51531); experiment: Luminescence-based cell-based high throughput dose response assay to identify activators of the function of SWI/SNF related, matrix associated, actin dependent regulator of chromatin, subfamily a, member 2 (SMARCA2, BRM).; assay type: functional
Vero [11] = experiment: cells; assay type: functional, cell-based; settings: Chlorocebus sabaeus
[12] = Luminescence Cell-Based Dose Response HTS to Identify Activators of Luciferase Translation or Activity in H4 […] Cells. [Related pubchem assays: 1829 (Project Summary), 1814 (Primary HTS)]; assay type: functional
[13] = Luminescence Cell-Based Dose Confirmation HTS to Identify Activators of 5'UTR Stem-Loop Driven Alpha-Synuclein mRNA Translation in H4 Neuroglioblastoma Cells. [Related pubchem assays: 1829 (Project Summary), 1814 (Primary HTS)]; assay type: functional
[14] = Luminescence Cell-Based Dose Retest to Confirm Inhibitors of Cancer Stem Cells. [Related pubchem assays (depositor defined):AID2717, AID2721]; assay type: functional; settings: Homo sapiens
Vero [15] = experiment: cells; assay type: functional; settings: Chlorocebus sabaeus
[16] = Counterscreen for activators of the function of SWI/SNF related, matrix associated, actin dependent regulator of chromatin, subfamily a, member 2 (SMARCA2, BRM): Luminescence-based cell-based high throughput dose response assay to identify non-selective compounds using the VP16 reporter assay.; assay type: functional
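Wherever AC50 is given: cells exposed to compound for roughly 70 hours or longer before luminescence read.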

T1 sequence (P07550 whole entry): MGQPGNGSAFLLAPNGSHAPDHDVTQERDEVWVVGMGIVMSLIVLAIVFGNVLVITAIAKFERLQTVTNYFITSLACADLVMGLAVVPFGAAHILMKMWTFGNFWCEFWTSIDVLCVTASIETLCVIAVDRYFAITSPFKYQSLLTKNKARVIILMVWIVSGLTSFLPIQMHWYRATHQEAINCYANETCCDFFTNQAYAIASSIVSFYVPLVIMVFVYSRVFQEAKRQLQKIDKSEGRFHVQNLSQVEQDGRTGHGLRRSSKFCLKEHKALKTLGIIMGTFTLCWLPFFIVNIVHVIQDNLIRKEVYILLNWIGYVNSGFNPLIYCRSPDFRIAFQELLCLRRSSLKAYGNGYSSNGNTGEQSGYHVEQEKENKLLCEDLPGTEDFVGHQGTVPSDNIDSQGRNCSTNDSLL
T2 sequence (Q79MP6 whole entry): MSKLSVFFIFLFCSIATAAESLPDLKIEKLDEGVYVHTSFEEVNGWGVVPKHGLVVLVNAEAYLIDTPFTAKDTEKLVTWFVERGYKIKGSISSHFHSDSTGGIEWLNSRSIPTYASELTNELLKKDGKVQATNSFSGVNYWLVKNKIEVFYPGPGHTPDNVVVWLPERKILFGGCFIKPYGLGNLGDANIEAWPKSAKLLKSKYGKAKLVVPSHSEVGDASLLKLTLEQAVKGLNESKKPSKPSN
SWI/SNF-related matrix-associated actin-dependent regulator of chromatin subfamily A member 2, sequence (P51531 whole entry): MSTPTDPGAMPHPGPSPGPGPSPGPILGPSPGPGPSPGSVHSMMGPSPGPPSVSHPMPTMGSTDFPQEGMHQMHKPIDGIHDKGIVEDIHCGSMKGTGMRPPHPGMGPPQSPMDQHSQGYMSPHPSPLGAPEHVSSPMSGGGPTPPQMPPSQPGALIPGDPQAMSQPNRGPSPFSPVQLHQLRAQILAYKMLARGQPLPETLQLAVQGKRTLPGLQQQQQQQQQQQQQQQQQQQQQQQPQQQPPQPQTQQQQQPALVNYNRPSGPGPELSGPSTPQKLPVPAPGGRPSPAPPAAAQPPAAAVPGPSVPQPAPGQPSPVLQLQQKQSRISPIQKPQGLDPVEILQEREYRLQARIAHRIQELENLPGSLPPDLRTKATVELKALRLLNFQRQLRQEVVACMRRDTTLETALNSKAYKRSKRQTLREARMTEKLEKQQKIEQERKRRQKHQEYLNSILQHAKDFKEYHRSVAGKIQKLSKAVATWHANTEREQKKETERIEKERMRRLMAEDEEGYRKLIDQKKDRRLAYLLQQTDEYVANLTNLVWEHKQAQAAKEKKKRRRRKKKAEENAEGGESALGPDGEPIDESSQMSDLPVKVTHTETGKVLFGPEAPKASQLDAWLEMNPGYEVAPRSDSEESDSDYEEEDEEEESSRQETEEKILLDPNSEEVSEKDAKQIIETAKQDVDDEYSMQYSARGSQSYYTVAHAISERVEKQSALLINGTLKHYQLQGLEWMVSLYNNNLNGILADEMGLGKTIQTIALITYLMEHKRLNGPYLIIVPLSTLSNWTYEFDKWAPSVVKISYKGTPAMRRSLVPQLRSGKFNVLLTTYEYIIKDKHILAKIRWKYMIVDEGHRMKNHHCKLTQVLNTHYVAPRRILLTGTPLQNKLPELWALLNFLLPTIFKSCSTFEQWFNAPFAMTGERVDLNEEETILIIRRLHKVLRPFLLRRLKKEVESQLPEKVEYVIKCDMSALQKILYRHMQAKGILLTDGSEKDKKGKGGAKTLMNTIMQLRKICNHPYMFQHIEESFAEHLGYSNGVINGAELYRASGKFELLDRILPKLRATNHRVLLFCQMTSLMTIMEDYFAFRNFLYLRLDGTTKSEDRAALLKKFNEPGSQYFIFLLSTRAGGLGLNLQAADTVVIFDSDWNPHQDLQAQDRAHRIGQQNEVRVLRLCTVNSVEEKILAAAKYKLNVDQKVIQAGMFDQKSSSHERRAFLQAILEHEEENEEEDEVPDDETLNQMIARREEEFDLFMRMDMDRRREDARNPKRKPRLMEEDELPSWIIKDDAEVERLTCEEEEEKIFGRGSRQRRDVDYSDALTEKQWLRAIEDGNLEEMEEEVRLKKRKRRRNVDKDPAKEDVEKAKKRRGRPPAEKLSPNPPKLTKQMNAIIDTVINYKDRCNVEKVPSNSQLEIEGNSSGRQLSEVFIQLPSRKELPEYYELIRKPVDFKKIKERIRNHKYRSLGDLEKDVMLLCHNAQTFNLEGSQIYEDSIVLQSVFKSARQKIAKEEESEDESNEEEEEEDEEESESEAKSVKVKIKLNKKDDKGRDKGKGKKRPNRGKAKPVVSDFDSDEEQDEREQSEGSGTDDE
Beta-lactamase (Salmonella choleraesuis (strain SC-B67), UniProt Q5J463), sequence (Q5J463 whole entry): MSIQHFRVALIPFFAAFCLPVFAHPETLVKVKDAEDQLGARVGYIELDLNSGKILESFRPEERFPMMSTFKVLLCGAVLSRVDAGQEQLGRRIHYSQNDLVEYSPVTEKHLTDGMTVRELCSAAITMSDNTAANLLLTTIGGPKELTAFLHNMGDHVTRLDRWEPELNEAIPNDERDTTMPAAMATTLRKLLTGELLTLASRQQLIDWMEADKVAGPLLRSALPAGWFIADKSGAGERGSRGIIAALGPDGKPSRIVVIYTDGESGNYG

With `O=C(c1ccc(OC2CCN(Cc3ccc(F)cc3)CC2)cc1)N1CCCC1` the EC50 (cells [1]) was > 350 µM (not active), the EC50 [2] was 1.6 µM (active) and the EC50 [3] was 5.28 µM (active). The EC50 (cells [4]) was > 350 µM (not active).
In the case of `COCC(=O)Nc1nnc(SCC(=O)NCc2cccs2)s1`, the IC50 (Beta-lactamase [5]) is reported as > 59.6 µM (inactive), the IC50 (Beta-lactamase [6]) is reported as > 59.6 µM (inactive) and the IC50 (Beta-lactamase [7]) is reported as > 59.6 µM (inactive).
With `CC(=O)c1ccc(NC(=O)c2ccc([N+](=O)[O-])o2)cc1` the IC50 (Jurkat) was 35.2 µM (inactive), the IC50 (HEK293 [8]) was 51.8 µM (inactive) and the EC50 (H4) was > 120 µM (not active). The IC50 (HEK293 [9]) was 38.9 µM (inactive), the EC50 [10] was > 91.1 µM (inactive) and the IC50 (Vero [11]) was > 25 µM (active). The EC50 [12] was > 120 µM (not active), the EC50 [13] was > 120 µM (not active) and the AC50 [14] was 4.95 µM (active). The CC50 (Vero [15]) was 14.3 µM (active) and the EC50 [16] was > 91.1 µM (inactive).
